# Experimental data as given in US20090233957A1, “(-)-BELOXEPIN AND METHODS FOR ITS SYNTHESIS AND USE” (priority 2008, published 2009).
# How the values were obtained:
# [1] = target: T1, cloned human 5HT2C receptor (Homo sapiens, UniProt P28335); assay: 5HT2C receptor binding assay, [3H]mesulergine; conditions: CHO membranes
# T1 construct: expressed in transfected cells; host or cells: CHO cells
# T1 sequence (P28335 33-458): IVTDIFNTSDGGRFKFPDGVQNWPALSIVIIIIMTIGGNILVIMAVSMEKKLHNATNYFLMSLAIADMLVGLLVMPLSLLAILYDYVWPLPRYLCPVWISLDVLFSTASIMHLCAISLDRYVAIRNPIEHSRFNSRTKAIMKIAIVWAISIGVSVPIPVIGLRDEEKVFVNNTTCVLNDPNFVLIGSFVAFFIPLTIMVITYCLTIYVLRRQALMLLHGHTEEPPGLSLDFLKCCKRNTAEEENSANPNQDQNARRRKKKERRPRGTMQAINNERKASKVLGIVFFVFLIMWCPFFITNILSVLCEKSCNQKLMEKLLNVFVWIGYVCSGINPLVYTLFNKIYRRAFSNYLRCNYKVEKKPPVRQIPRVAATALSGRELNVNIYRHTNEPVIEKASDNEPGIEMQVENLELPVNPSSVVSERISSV
# Protocol: For the 5HT2C receptor binding assay, [^3H]mesulergine (1.0 nM) was incubated for 60 min at 37° C. with membranes prepared from Chinese hamster ovary cells heterologously expressing the cloned human 5-HT2C receptor according to the method of Stam et al., 1994, Eur. J. Pharmacol. 269:339-348. Various concentrations of test compound were added and bound radioactivity was determined by scintillation counting. Non-specific binding was determined in the presence of 10 μM RS102221. The Ki value for the test compound was determined using standard methods.
# [2] = tested on: L5 SNL rats; assay: L5 Single Nerve Ligation model of neuropathic pain, tactile allodynia (von Frey); type: in vivo, rat
# Protocol: Protocol. The antiallodynic activity of (−)-beloxepin was tested in vivo using the L5—Single Nerve Ligation model of non-nociceptive neuropathic pain as described in LaBuda & Little, 2005, J. Neurosci. Methods 144:175-181. The test animals were placed in a Plexiglas chamber (10 cm×20 cm×25 cm) and habituated for 15 minutes. The chamber was positioned on top of a mesh screen so that von Frey monofilaments could be presented to the plantar surface of both hindpaws. Measurement of tactile sensitivity for each hind paw were obtained using the up/down method (Dixon, 1980, Annu. Rev. Pharmacol. Toxicol. 20:441-462) with seven Frey monofilaments (0.4, 1, 2, 4, 6, 8 and 15 grams). Each trial started with a von Frey force of 2 grams delivered to the right hind paw for approximately 1-2 seconds and then the left hind paw. If there was no withdrawal response, the next higher force was delivered. If there was a response, the next lower force was delivered. This procedure was performed until no response was made at the highest force (15 grams) or until four stimuli were administered following the initial response. The 50% paw withdrawal threshold for each paw was calculated using the following formula: [Xth]log=[vFr]log+ky, where [vFr] is the force of the last von Frey used, k=0.2249 which is the average interval (in log units) between the von Frey monofilaments, and y is a value that depends upon the pattern of withdrawal responses (Dixon, 1980, supra). […] Testing for tactile sensitivity was performed twice and the mean 50% withdrawal value assigned as the tactile sensitivity for the right and left paws for each animal.
# Results. The antiallodynic effects produced by (−)-beloxepin (30 mg/kg IP) and (+)-beloxepin (30 mg/kg IP) in L5 SNL rats 8 days post surgery are illustrated in FIG. 1. In this experiment, at 8 days post surgery, rats were treated with vehicle or beloxepin enantiomers (30 mg/kg IP) and tested for tactile allodynia at 30 min post treatment. […] No side effects were observed following treatment with either enantiomer.
# The antiallodynic effects produced by (−)-beloxepin (30 mg/kg IP) in L5 SNL rats 14 days post surgery are illustrated in FIG. 2. In this experiment, at 14 days post surgery, rats were treated with vehicle or (−)-beloxepin and tested for tactile allodynia at 30, 60, 120 and 240 min post treatment. Vehicle treated rats were tested at 30 min post treatment.
# Protocol. A time course experiment was performed with (−)-beloxepin (60 mg/kg PO) in L5 SNL rats at 7 days post-surgery. Rats were tested at 30, 60, 120, and 240 minutes post-drug.
# Protocol. A time course experiment was also performed with (+)-beloxepin (60 mg/kg PO) in L5 SNL rats at 14 days post-surgery. Rats were tested at 30, 60, 120, and 240 minutes post-drug.
# [3] = target: T2, cloned human NE transporter (hNET) (Homo sapiens, UniProt P23975); assay: NE transporter binding assay, [3H]nisoxetine; conditions: membranes of CHO cells expressing hNET; read-out: NET Ki
# T2 construct: expressed in transfected cells; host or cells: CHO cells
# T2 sequence (P23975 whole entry): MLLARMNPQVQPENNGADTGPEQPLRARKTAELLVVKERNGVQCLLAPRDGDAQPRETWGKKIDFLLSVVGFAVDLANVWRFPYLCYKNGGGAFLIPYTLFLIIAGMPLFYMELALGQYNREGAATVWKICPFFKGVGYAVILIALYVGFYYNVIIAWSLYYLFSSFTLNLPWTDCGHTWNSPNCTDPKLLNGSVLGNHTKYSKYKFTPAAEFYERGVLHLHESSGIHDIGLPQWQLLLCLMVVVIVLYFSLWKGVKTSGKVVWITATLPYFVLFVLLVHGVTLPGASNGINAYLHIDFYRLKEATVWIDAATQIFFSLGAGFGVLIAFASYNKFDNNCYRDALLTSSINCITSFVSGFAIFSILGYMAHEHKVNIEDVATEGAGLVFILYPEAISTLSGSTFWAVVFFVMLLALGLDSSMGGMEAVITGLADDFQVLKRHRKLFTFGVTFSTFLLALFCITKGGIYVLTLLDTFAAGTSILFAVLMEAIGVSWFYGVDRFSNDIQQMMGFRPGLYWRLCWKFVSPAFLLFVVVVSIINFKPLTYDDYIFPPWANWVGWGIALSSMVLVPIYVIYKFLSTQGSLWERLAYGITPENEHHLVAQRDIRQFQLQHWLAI
# Protocol: Protocols. For the NE transporter binding assay, [^3H]nisoxetine (1.0 nM) was incubated with various concentrations of test compounds for 2 hours at 4° C. with membranes prepared from Chinese hamster ovary cells (CHO) cells heterologously expressing the cloned human NE transporter (hNET). Bound radioactivity was determined by scintillation spectroscopy.
structure (smiles),measurement,setting,value
"Cc1cccc2c1Oc1ccccc1C1(O)CCN(C)CC21 (single isomer, unassigned; (+)) [(+)-beloxepin]",Ki,[1],84 nM
same,antiallodynic effect,"[2]; 30 mg/kg IP, 8 days post surgery, 30 min post treatment",not statistically significant
same,antiallodynic effect,"[2]; 60 mg/kg PO, 14 days post-surgery, tested 30, 60, 120, 240 min",did not produce significant antiallodynic effects at any time point
same,Ki,[3],2920 nM
